Molecules are shown by their SMILES.

The experiment relates to HEK293 cells. Put plainly: Preliminary screening as mRNA vectors, EGFP mRNA transfection of HEK293 cells. The experiment is classed as cell-based. Particulars: EGFP mRNA 50 ng per well, 96-well plates; percentage of GFP fluorescent cells relative to total number of cells (Hoechst). A digest of the protocol:
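Each well of HEK293 cells received 50 ng of EGFP mRNA. Efficiency was expressed as percent GFP-expressing cells over Hoechst-defined total cell number.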
On to `CCCCCCCCCCCCCCSc1nc(NCCCCCC)nc(NCCN2CCOCC2)n1` [Compound D2S14N6], for which the “Absolute mRNA transfection efficiency in HEK293 cells” value (“Absolute mRNA transfection efficiency” below) is listed as 8.8%.

On to `CCCCCCCCCCCCCCSc1nc(NCCCCCCC)nc(NCCN2CCOCC2)n1` [Compound D2S14N7], for which the “Absolute mRNA transfection efficiency” value is 4.5%.

For `CCCCCCCCCCCCCCSc1nc(NCCCCCCCC)nc(NCCN2CCOCC2)n1` [Compound D2S14N8], the “Absolute mRNA transfection efficiency” value was 3.7%. As to `CCCCCCCCCCCCCCSc1nc(NCCCCCCCCC)nc(NCCN2CCOCC2)n1` [Compound D2S14N9], the “Absolute mRNA transfection efficiency” value is 7.4%.

With `CCCCCCCCCCCCCCSc1nc(NCCCCCCCCCCC)nc(NCCN2CCOCC2)n1` [Compound D2S14N11], the “Absolute mRNA transfection efficiency” value was determined as 3.5%. For the compound `CCCCCCCCCCCCCCSc1nc(NCCCCCCCCCCCC)nc(NCCN2CCOCC2)n1` [Compound D2S14N12], the “Absolute mRNA transfection efficiency” value came out at 2.1%.

Turning to `CCCCCCCCCCCCCCSc1nc(NCCCCCCCCCCCCC)nc(NCCN2CCOCC2)n1` [Compound D2S14N13], the “Absolute mRNA transfection efficiency” value is reported as 1.1%. As for `CCCCCCCCCCCCCCCNc1nc(NCCN2CCOCC2)nc(SCCCCCCCCCCCCCC)n1` [Compound D2S14N15], the “Absolute mRNA transfection efficiency” value is given as 0.0%. On to `CCCCCCCCCCCCCCCCNc1nc(NCCN2CCOCC2)nc(SCCCCCCCCCCCCCC)n1` [Compound D2S14N16], for which the “Absolute mRNA transfection efficiency” value worked out at 0.1%.

In the case of `CCCCCCCCCCCCCCCCCCNc1nc(NCCN2CCOCC2)nc(SCCCCCCCCCCCCCC)n1` [Compound D2S14N18], the “Absolute mRNA transfection efficiency” value came to 0.1%.

Regarding `CCCCCCCCCCCCCCCSc1nc(NCCCCCC)nc(NCCN2CCOCC2)n1` [Compound D2S15N6], the “Absolute mRNA transfection efficiency” value was 4.9%. With `CCCCCCCCCCCCCCCSc1nc(NCCCCCCC)nc(NCCN2CCOCC2)n1` [Compound D2S15N7], the “Absolute mRNA transfection efficiency” value came to 4.5%. With `CCCCCCCCCCCCCCCSc1nc(NCCCCCCCC)nc(NCCN2CCOCC2)n1` [Compound D2S15N8], the “Absolute mRNA transfection efficiency” value came out at 2.2%. On to `CCCCCCCCCCCCCCCSc1nc(NCCCCCCCCC)nc(NCCN2CCOCC2)n1` [Compound D2S15N9], for which the “Absolute mRNA transfection efficiency” value stood at 1.1%. For the compound `CCCCCCCCCCCCCCCSc1nc(NCCCCCCCCCCC)nc(NCCN2CCOCC2)n1` [Compound D2S15N11], the “Absolute mRNA transfection efficiency” value turned out to be 3.3%. On to `CCCCCCCCCCCCCCCSc1nc(NCCCCCCCCCCCC)nc(NCCN2CCOCC2)n1` [Compound D2S15N12], for which the “Absolute mRNA transfection efficiency” value turned out to be 0.1%. Next, `CCCCCCCCCCCCCCCSc1nc(NCCCCCCCCCCCCC)nc(NCCN2CCOCC2)n1` [Compound D2S15N13]: 0.1%; `CCCCCCCCCCCCCCCNc1nc(NCCN2CCOCC2)nc(SCCCCCCCCCCCCCCC)n1` [Compound D2S15N15]: 0.2%. For `CCCCCCCCCCCCCCCCNc1nc(NCCN2CCOCC2)nc(SCCCCCCCCCCCCCCC)n1` [Compound D2S15N16], the “Absolute mRNA transfection efficiency” value came out at 1.4%.

As for `CCCCCCCCCCCCCCCCCCNc1nc(NCCN2CCOCC2)nc(SCCCCCCCCCCCCCCC)n1` [Compound D2S15N18], the “Absolute mRNA transfection efficiency” value amounted to 0.3%.

In the case of `CCCCCCCCCCCCCCCCSc1nc(NCCCCCC)nc(NCCN2CCOCC2)n1` [Compound D2S16N6], the “Absolute mRNA transfection efficiency” value stood at 23.6%. As for `CCCCCCCCCCCCCCCCSc1nc(NCCCCCCC)nc(NCCN2CCOCC2)n1` [Compound D2S16N7], the “Absolute mRNA transfection efficiency” value was determined as 10.0%. On to `CCCCCCCCCCCCCCCCSc1nc(NCCCCCCCC)nc(NCCN2CCOCC2)n1` [Compound D2S16N8], for which the “Absolute mRNA transfection efficiency” value is given as 19.1%.

Consider `CCCCCCCCCCCCCCCCSc1nc(NCCCCCCCCC)nc(NCCN2CCOCC2)n1` [Compound D2S16N9], for which the “Absolute mRNA transfection efficiency” value was found to be 7.2%.
